Here are results for two compounds from patent publication US20190125896A1, “ANTI-INFECTIVE COMPOSITIONS COMPRISING PHYTOGLYCOGEN NANOPARTICLES” (MIREXUS BIOTECHNOLOGIES INC., priority 2016, published 2019).

≈ marks a conversion by molar mass, not a printed value. Where only a bound is given, the exact number is not on record here.

One test concerns C. utilis ATCC9950. Nature of the test: Sensitization to antibiotics: MIC in medium supplemented with phytoglycogen. It is filed as cell-based. Particulars: Candida utilis. On the procedure:
(§1) MIC assays as defined in Example 15 were performed in sterile and untreated 96 well microtitre plates according to the broth micro-dilution technique described in either the Clinical and Laboratory Standards Institute document M07-A9: Methods for Dilution Antimicrobial Susceptibility Tests for Bacteria that Grow Aerobically; Approved Standard and document M27-A2 Reference Method for Broth Dilution Antifungal Susceptibility Testing of Yeasts; Approved Standard—Second Edition, with the exception that, where indicated, medium was additionally supplemented with native or cationized phytoglycogen. Assessments done using C. utilis ATCC9950, B. subtilis 168 and E. coli AB264 employed native or cationized phytoglycogen at concentrations ⅛, ¼, ½ their respective MIC values for cationized phytoglycogen. Assessments of the opportunistic pathogen P. aeruginosa PAO1 were made at final in-assay concentrations of 0.5, 1 or 10 mg native or cationized phytoglycogen.ml^−1. Experiments were performed as in-assay duplicates, and were repeated a minimum of three times (n=6).
(§2) MIC assays were performed in duplicate within each experiment and were repeated a minimum three times to confirm the data (n=6). MIC values with a four-fold or greater change relative to the non-supplemented medium MIC represent a statistically-significant change in MIC value. Only those antibiotic-cationized phytoglycogen combinations which caused a four-fold change relative to the non-supplemented medium MIC were deemed as indicative of resulting in potentiation (MIC value was less), or tolerance (MIC value increased).

In a further test the test system is Candida utilis ATCC9950. Nature of the test: MIC of amphotericin B-phytoglycogen conjugate, modified broth microdilution. It counts as cell-based. The note with it: 35° C. On the procedure: The activity of the amphotericin B-phytoglycogen conjugate (PHG-AMB) was assayed against a yeast, Candida utilis ATCC9950, using a modified broth microdilution assay (CLSI M27-A2; Example 15). RPMI 1640 medium (Sigma-Aldrich; Canada), containing no sodium bicarbonate, supplemented with 0.165 M MOPS and adjusted to a pH of 7.0, was used for the assay. Stocks of 1600 μg AMB/ml DMSO were stored at −80° C. and diluted prior to use. 500 μg PHG-AMB.ml^−1 RPMI 1640 was prepared fresh on the day of assay. Briefly, doubling dilutions of 16 μg AMB.ml^−1 RPMI 1640 and 500 μg PHG-AMB.ml^−1 RPMI 1640 were prepared by serial two-fold dilution in RPMI 1640. Controls comprised AMB supplemented with phytoglycogen adjusted to mimic the changing concentration of PHG-AMB in the wells. Negative growth control wells contained sterile medium. Positive growth control wells contained medium or medium supplemented with phytoglycogen. […] Assays were performed as in duplicate replicate with a minimum of three independent replicates.

In test [1] the test system is Pseudomonas aeruginosa PAO1. Nature of the test: MIC broth micro-dilution. The note with it: P. aeruginosa PAO1, Mueller-Hinton broth, read-out: MIC value established empirically. It is filed as cell-based.
Experimental: Minimum inhibitory concentration (MIC) assays were done to evaluate antibacterial properties of cationized phytoglycogen. The MIC is defined as “the lowest concentration of an anti-infective agent that prevents visible growth of a micro-organism in an agar or broth dilution susceptibility test”.
MIC assessments against bacteria were performed following broth micro-dilution in accordance with the Clinical and Laboratory Standards Institute document M07-A9: Methods for Dilution Antimicrobial Susceptibility Tests for Bacteria that Grow Aerobically; Approved Standard. A Gram-positive organism, Bacillus subtilis 168, and two Gram-negative organisms, Escherichia coli AB264 (K-12) and Pseudomonas aeruginosa PAO1 were assessed. Long-term stock cultures of organisms were maintained at −80° C. in glycerol (15% vol/vol). Stocks were revived by sub-culturing onto trypticase soy agar plates, grown for 18 hrs at 37° C. and then stored at 4° C. for up to one week. Overnight cultures were grown by inoculating Mueller-Hinton broth with 3-4 colonies from stock plates and incubating for 20-24 hrs at 37° C. and 150 rpm. […] Plates were incubated at 37° C. for 20 h, at which points wells were scored for growth. […] Cationized phytoglycogen, prepared according to the alternative procedure detailed in Example 3, was also assessed in double-dilution increments from 19 to 10 000 μg.ml^−1. […]
The subject of the next test is P. aeruginosa PAO1. Briefly: Sensitization to antibiotics: MIC in medium supplemented with phytoglycogen. Particulars: P. aeruginosa. It is filed as cell-based, Pseudomonas aeruginosa. As to the method: as §1, §2
Test [2] concerns P. aeruginosa PAO1 biofilm. Nature of the test: Biofilm formation at sub-MIC tobramycin. It counts as cell-based, Pseudomonas aeruginosa. Particulars: non-supplemented medium. As to the method:
The potential for cationized phytoglycogen to limit enhanced biofilm formation at sub-MIC concentrations of the aminoglycoside tobramycin was assessed in sterile 96 well polystyrene plates. P. aeruginosa PAO1 stocks were revived by sub-culturing P. aeruginosa PAO1 in Mueller-Hinton broth (Oxoid; Fisher Scientific, Canada) and grown for 20-22 h (37° C., 150 rpm). Sterile solutions of gamma-irradiated cationized phytoglycogen was prepared by reconstitution and dilution as required in sterile Mueller-Hinton broth. […] The inoculum was prepared immediately prior to use by diluting in sterile Mueller-Hinton broth, with a final in-assay cell density of 5×10^5 CFU.ml^−1. Plates were incubated statically at 37° C. At 20 h, biofilms were stained and quantitated according to the previously described protocol (Example 23). Experiments were done in quadruplicate replicate and repeated three times (n=12).

The subject of test [3] is P. aeruginosa PAO1 biofilm. Nature of the test: Biofilm eradication: 20 h biofilms treated with antibiotic and cationized phytoglycogen. The note with it: 24 h, medium alone. It counts as cell-based, Pseudomonas aeruginosa. As to the method: Biofilm growth and treatments were performed in sterile 96 well polystyrene plates. Sterile solutions of gamma-irradiated cationized phytoglycogen was prepared by reconstitution and dilution as required in sterile Mueller-Hinton broth. P. aeruginosa PAO1 stocks were revived by sub-culturing P. aeruginosa PAO1 (37° C., 150 rpm, 16-18 h) in Mueller-Hinton broth (Oxoid; Fisher Scientific, Canada). The inoculum was prepared immediately prior to use by diluting in sterile Mueller-Hinton broth to a final in-assay cell density of 5×10^5 CFU.ml^−1. 100 μl of this solution was transferred to wells and incubated (37° C., 150 rpm). Sterile broth was the negative growth control. At 20 h, plates were transferred to a biological safety cabinet, well contents were gently aspirated and the wells rinsed with sterile 0.9% (wt/vol) NaCl. […] Positive growth controls contained inoculated medium, non-supplemented or with 1 or 10 mg cationized phytoglycogen.ml^−1. Plates were incubated at 37° C. for a further 24 h, after which biofilms were quantitated as previously described. Experiments were done in quadruplicate replicate and repeated three times (n=12).

For `C[C@@H]1[C@H](O)[C@@H](C)/C=C/C=C/C=C/C=C/C=C/C=C/C=C/[C@H](O[C@@H]2O[C@H](C)[C@@H](O)[C@H](N)[C@@H]2O)C[C@@H]2O[C@](O)(C[C@@H](O)C[C@@H](O)[C@H](O)CC[C@@H](O)C[C@@H](O)CC(=O)O[C@H]1C)C[C@H](O)[C@H]2C(=O)O` [amphotericin B], the “fold-change reduction in MIC, CP0.125” value in the test with C. utilis ATCC9950 (cationized phytoglycogen at 0.125 of its MIC) is given as 1-2 fold. In addition, in the test with C. utilis ATCC9950 (cationized phytoglycogen at 0.25 of its MIC), the “fold-change reduction in MIC, CP0.25” value worked out at 1 fold. Further, in the test with C. utilis ATCC9950 (cationized phytoglycogen at half-strength of its MIC), the “fold-change reduction in MIC, CP0.5” value is recorded as “↓4 fold”. For the same compound, the MIC amounted to 0.5 μg AMB.ml^−1 with Candida utilis ATCC9950 (RPMI 1640, 48 h) and 0.5 μg AMB.ml^−1 in the test with Candida utilis ATCC9950 (RPMI 1640 supplemented with phytoglycogen, 48 h).
As for `NC[C@H]1O[C@H](O[C@H]2[C@H](O)[C@@H](O[C@H]3O[C@H](CO)[C@@H](O)[C@H](N)[C@H]3O)[C@H](N)C[C@@H]2N)[C@H](N)C[C@@H]1O` [tobramycin], the MIC in test [1] worked out at 0.4 µg/mL (≈ 0.856 µM); in the test on P. aeruginosa PAO1 (Pseudomonas aeruginosa, PAO1, non-supplemented Mueller-Hinton Broth, read-out: MIC), 0.25 µg/mL. Also, in the test on P. aeruginosa PAO1 (0.5 mg cationized phytoglycogen · ml^−1 Mueller-Hinton Broth), the “↓ Fold-change in MIC (cationized phytoglycogen) MIC.5 mg/ml” value is 2 fold. The “↓ Fold-change in MIC (cationized phytoglycogen) MIC1 mg/ml” value in the test on P. aeruginosa PAO1 (1 mg cationized phytoglycogen · ml^−1 Mueller-Hinton Broth) is given as 2 fold. The “↓ Fold-change in MIC (cationized phytoglycogen) MIC10 mg/ml” value with P. aeruginosa PAO1 (10 mg cationized phytoglycogen · ml^−1 Mueller-Hinton Broth) turned out to be 1 fold. Besides, the “factor of biofilm accumulation relative to the medium only control” value in test [2] (tobramycin at % -MIC) was 1.5; in test [2] (tobramycin at ¼-MIC) it was 1.33; in test [2] (tobramycin at ½-MIC), above 2.00. Moreover, the “change in biofilm of 20 h biofilms” value in test [3] (0.125 to 2 times the MIC) was “net increase in biofilm proliferation”. The “reduction of biofilm relative to the initial biofilm” value in test [3] (four-fold the MIC) stood at 40%.
